Where two headings read alike, the source gives them in different places.

This data set in a line: log P determination by HPLC on reversed-phase columns (C 18), analogously to OECD Guideline 117. The data set is classed as physicochemical. The following applies: for logP (HCOOH): LC-MS in the acidic range, pH 2.7, 0.1% aqueous formic acid / acetonitrile; for logP (HCOOH) / logP (neutral): HPLC reversed-phase C 18; for logP (neutral): LC-MS in the neutral range, pH 7.8, 0.001 molar aqueous ammonium hydrogencarbonate / acetonitrile. Here is the method:
The log P values were determined analogously to OECD Guideline 117 (EC Directive 92/69/EEC) by HPLC (high-performance liquid chromatography) using reversed-phase columns (C 18), by the following methods:
[a] The LC-MS determination in the acidic range was effected at pH 2.7 with 0.1% aqueous formic acid and acetonitrile (contains 0.1% formic acid) as eluents; linear gradient from 10% acetonitrile to 95% acetonitrile. log P^[a] is also referred to as log P(HCOOH). [b] LC-MS determination in the neutral range was effected at pH 7.8 with 0.001 molar aqueous ammonium hydrogencarbonate solution and acetonitrile as eluents; linear gradient from 10% acetonitrile to 95% acetonitrile. log P^[…] is also referred to as log P(neutral).

Where [1] appears, read: reversed-phase C18 HPLC column, acidic range, pH 2.7, 0.1% aqueous formic acid and acetonitrile, read-out: log P[a] / log P(HCOOH).
The mark [2] stands for this setting: reversed-phase C18 HPLC column, neutral range, pH 7.8, 0.001 molar aqueous ammonium hydrogencarbonate and acetonitrile, read-out: log P[b] / log P(neutral).
The mark [3] stands for this setting: acidic range, pH 2.7, 0.1% aqueous formic acid and acetonitrile, read-out: log P[a] / log P(HCOOH).

As to `Cc1cc(F)c(-n2c(=O)n(C3CC3)c(=O)n2C)cc1SCC(F)(F)F` [Example 128], the “logP (HCOOH)” value was 3.49 and the “logP (neutral)” value was 3.45.

For `Cc1cc(F)c(NCC(C)O)cc1SCC(F)(F)F` (centres unmarked) [1-[2-Fluoro-4-methyl-5-(2,2,2-trifluoroethylsulfanyl)aniline]propan-2-ol], the chromatographic logP under setting [1] worked out at 3.01.

Turning to `Cn1c(OCC2CC2)n[nH]c1=O` [drawing 121 R1=CH2-cyclopropyl R10=CH3, 5-(cyclopropylmethoxy)-4-methyl-2,4-dihydro-3H-1,2,4-triazol-3-one], the chromatographic logP is, setting by setting: under setting [1], 0.84; under setting [2], 0.88. As to `CCn1[nH]c(=O)n(CC)c1=O` [1,4-Diethyl-1,2,4-triazolidine-3,5-dione], the chromatographic logP under setting [1] was determined as 0.14. Still for that read-out and setting: as for `Cc1cc(F)c(N2C(=O)N(C)C(=O)C2(C)C)cc1[S+]([O-])CC(F)(F)F` (centres unmarked) [Example 216, 1-[2-Fluoro-4-methyl-5-(2,2,2-trifluoroethylsulfinyl)phenyl]-3,5,5-trimethylimidazolidine-2,4-dione], the figure is 2.05. For `[O-][S+](CC(F)(F)F)c1cc(B(O)O)c(Cl)cc1Cl` (centres unmarked) [VIIIb-6, {2,4-Dichloro-5-[(2,2,2-trifluoroethyl)sulfinyl]phenyl}boronic acid], the chromatographic logP by setting is: under setting [1], 1.86; under setting [2], 1.51. In the case of `Cc1cc(F)c(-n2c(=O)n(C(C)C)c(=O)n2CC(F)(F)F)cc1[S+]([O-])CC(F)(F)F` (racemic) [Example 153], the “logP (HCOOH)” value came out at 2.95 and the “logP (neutral)” value is reported as 3.04. In the same order, the values of `Cc1cc(F)c(-n2c(=O)n(C)c(=O)n2C2CCCC2)cc1SCC(F)(F)F` [Example 86] are 3.75 and 3.67.

In the case of `CCOC(=O)NNC(=O)Nc1cc(SCC(F)(F)F)c(C)cc1F` [Ethyl 2-({2-fluoro-4-methyl-5-[(2,2,2-trifluoroethyl)sulfanyl]phenyl}carbamoyl)hydrazinecarboxylate], the chromatographic logP under setting [3] worked out at 2.41. In the case of `CC(C)n1c(=O)[nH]n(C)c1=O` [drawing 120 R1=CH3 R10=CH(CH3)2, 4-isopropyl-1-methyl-1,2,4-triazolidine-3,5-dione], the chromatographic logP under setting [1] was 0.27.

Take `Cc1cc(F)c(B2OC(C)(C)C(C)(C)O2)cc1SCC(F)(F)F` [2-{2-Fluoro-4-methyl-5-[(2,2,2-trifluoroethyl)sulfanyl]phenyl}-4,4,5,5-tetramethyl-1,3,2-dioxaborolane]: the chromatographic logP turned out to be 4.91 under setting [1] and 4.81 under setting [2]. In the same order, the values of `Cc1cc(C)c([S+]([O-])CC(F)(F)F)cc1B(O)O` (centres unmarked) [VIIIb-11, {2,4-Dimethyl-5-[(2,2,2-trifluoroethyl)sulfinyl]phenyl}boronic acid] are 1.61 and 1.61. In the same order, the values of `COc1ccc(B2OC(C)(C)C(C)(C)O2)cc1SCC(F)(F)F` [2-{4-Methoxy-3-[(2,2,2-trifluoroethyl)sulfanyl]phenyl}-4,4,5,5-tetramethyl-1,3,2-dioxaborolane] are 4.54 and 4.46. `Cc1cc(F)c(NC(=O)OCCCl)cc1SCC(F)(F)F` [2-Chloroethyl N-[2-fluoro-4-methyl-5-(2,2,2-trifluoroethylsulfanyl)phenyl]carbamate]: under setting [3], the chromatographic logP was 3.45. With `CC1(C)OB(c2cc(SCC(F)(F)F)c(Cl)cc2Cl)OC1(C)C` [2-{2,4-Dichloro-5-[(2,2,2-trifluoroethyl)sulfanyl]phenyl}-4,4,5,5-tetramethyl-1,3,2-dioxaborolane], the chromatographic logP is, setting by setting: under setting [1], 5.68; under setting [2], 5.31. Turning to `CCC(C)n1c(=O)n(C2CC2)c(=O)n1-c1cc([S+]([O-])CC(F)(F)F)c(C)cc1F` (centres unmarked) [Example 75], the “logP (HCOOH)” value was 2.73 and the “logP (neutral)” value was determined as 2.68.

The values above are taken from US9981928B2, “Aryl sulfide derivatives and aryl sulfoxide derivatives as acaricides and insecticides” (BAYER CROPSCIENCE AKTIENGESELLSCHAFT, priority 2013, dated 2018).
